Legend:
Type in all cases: cell-based
[1] = tested on: Klebsiella pneumoniae NCTC 10896; assay: Detection of L-alanine peptidase activity on Columbia agar containing the substrate; parameters: key to C [head as printed; cells hold growth signs]: the sign ++ signifies very good growth; the sign + signifies good growth of the strain; the sign +/− signifies average growth of the strain; the sign − signifies absence of growth of the strain; conditions: substrate 50 mg/l in Columbia agar; 24 to 48 h at 37° C.
[2] = tested on: Listeria monocytogenes NCTC 11994; assay: as above; parameters: key to G [head as printed; cells hold colony color]: I signifies colorless; key to C [head as printed; cells hold growth signs]: the sign ++ signifies very good growth; the sign + signifies good growth of the strain; the sign +/− signifies average growth of the strain; the sign − signifies absence of growth of the strain; conditions: substrate 50 mg/l in Columbia agar; 24 to 48 h at 37° C.
[3] = tested on: Providencia rettgeri NCTC 7475; assay: as above; parameters: key to C [head as printed; cells hold growth signs]: the sign ++ signifies very good growth; the sign + signifies good growth of the strain; the sign +/− signifies average growth of the strain; the sign − signifies absence of growth of the strain; conditions: substrate 50 mg/l in Columbia agar; 24 to 48 h at 37° C.
[4] = tested on: Proteus mirabilis NCTC 10975; assay: as above; parameters: key to C [head as printed; cells hold growth signs]: the sign ++ signifies very good growth; the sign + signifies good growth of the strain; the sign +/− signifies average growth of the strain; the sign − signifies absence of growth of the strain; conditions: substrate 50 mg/l in Columbia agar; 24 to 48 h at 37° C.
Salmonella hadar = assay: as above; parameters: key to C [head as printed; cells hold growth signs]: the sign ++ signifies very good growth; the sign + signifies good growth of the strain; the sign +/− signifies average growth of the strain; the sign − signifies absence of growth of the strain; conditions: substrate 50 mg/l in Columbia agar; 24 to 48 h at 37° C.
[5] = tested on: Staphylococcus aureus NCTC 6571; assay: as above; parameters: key to G [head as printed; cells hold colony color]: I signifies colorless; key to C [head as printed; cells hold growth signs]: the sign ++ signifies very good growth; the sign + signifies good growth of the strain; the sign +/− signifies average growth of the strain; the sign − signifies absence of growth of the strain; conditions: substrate 50 mg/l in Columbia agar; 24 to 48 h at 37° C.
[6] = tested on: Pseudomonas aeruginosa NCTC 10662; assay: as above; parameters: key to C [head as printed; cells hold growth signs]: the sign ++ signifies very good growth; the sign + signifies good growth of the strain; the sign +/− signifies average growth of the strain; the sign − signifies absence of growth of the strain; conditions: substrate 50 mg/l in Columbia agar; 24 to 48 h at 37° C.
[7] = tested on: Escherichia coli NCTC 10418; assay: as above; parameters: key to C [head as printed; cells hold growth signs]: the sign ++ signifies very good growth; the sign + signifies good growth of the strain; the sign +/− signifies average growth of the strain; the sign − signifies absence of growth of the strain; conditions: substrate 50 mg/l in Columbia agar; 24 to 48 h at 37° C.
[8] = tested on: Streptococcus pyogenes NCTC 8306; assay: as above; parameters: key to G [head as printed; cells hold colony color]: I signifies colorless; key to C [head as printed; cells hold growth signs]: the sign ++ signifies very good growth; the sign + signifies good growth of the strain; the sign +/− signifies average growth of the strain; the sign − signifies absence of growth of the strain; conditions: substrate 50 mg/l in Columbia agar; 24 to 48 h at 37° C.
Pseudomonas aeruginosa = assay: Detection of β-alanine peptidase activity (example 11), colony coloration; conditions: between 24 and 48 h of incubation
[9] = tested on: Burkholderia Gladioli LGM 6880; assay: as above; conditions: between 24 and 48 h of incubation; strain LGM 6880
Pseudomonas putida = assay: as above; conditions: between 24 and 48 h of incubation; Applicant's collection
Pseudomonas fluorescens = assay: as above; conditions: between 24 and 48 h of incubation; Applicant's collection
[10] = tested on: Burkholderia cepacia LMG 18941; assay: as above; conditions: between 24 and 48 h of incubation; strain LMG 18941
Escherichia coli = assay: as above; conditions: between 24 and 48 h of incubation; Applicant's collection
[11] = strain of Applicant's collection (r9)
[12] = strain of Applicant's collection (r13)

Structure (SMILES) | C [head as printed; cells hold growth signs] [1] | G [head as printed; cells hold colony color] [1] | C [head as printed; cells hold growth signs] [2] | G [head as printed; cells hold colony color] [2] | C [head as printed; cells hold growth signs] [3] | G [head as printed; cells hold colony color] [3] | C [head as printed; cells hold growth signs] [4] | G [head as printed; cells hold colony color] [4] | C [head as printed; cells hold growth signs] (Salmonella hadar) | G [head as printed; cells hold colony color] (Salmonella hadar) | C [head as printed; cells hold growth signs] [5] | G [head as printed; cells hold colony color] [5] | C [head as printed; cells hold growth signs] [6] | G [head as printed; cells hold colony color] [6] | C [head as printed; cells hold growth signs] [7] | G [head as printed; cells hold colony color] [7] | C [head as printed; cells hold growth signs] [8] | G [head as printed; cells hold colony color] [8] | coloration (Pseudomonas aeruginosa; strain ATCC 9027) | coloration (Pseudomonas aeruginosa; strain ATCC 10145) | also measured
CCCCCc1c2nc3ccc(NC(=O)[C@H](C)NC(=O)OC(C)(C)C)cc3oc-2cc(=O)c1Cl [Chlorinated L-alanyl compound, 7-N—(N′-t-butoxycarbonyl-L-alanyl)amino-2-chloro-1-pentylphenoxazin-3-one] | + | pink/purple | + | I | + | pink/purple | + | pink/purple | + | pinl/purple | + | I | + | pink/purple | + | pink/purple | +/− | I |  |  | 
CCCCCc1cc(=O)cc2oc3cc(NC(=O)[C@H](C)NC(=O)OC(C)(C)C)ccc3nc1-2 [Nonchlorinated L-alanyl compound, 7-N—(N″-t-butoxycarbonyl-L-alanyl)amino-1-pentylphenoxazin-3-one] | + | purple | − | I | + | purple | + | purple | + | purple | − | I | + | purple | + | purple | − | I |  |  | 
Cc1c2nc3ccc(NC(=O)CCN)cc3oc-2cc(=O)c1C.O=C(O)C(F)(F)F [b-ala-DMP, 7-N-(β-Alanyl)amino-1,2-dimethylphenoxazin-3-one trifluoroacetate salt] |  |  |  |  |  |  |  |  |  |  |  |  |  |  |  |  |  |  | deep pink | deep pink | coloration (Pseudomonas aeruginosa; strain ATCC 27853): pink; coloration (Pseudomonas aeruginosa; [11]): deep pink; coloration (Pseudomonas aeruginosa; [12]): colorless; coloration [9]: colorless; coloration (Pseudomonas putida): colorless; coloration (Pseudomonas fluorescens): colorless; coloration [10]: pale pink; coloration (Escherichia coli): orange
COC(=O)c1c2oc3cc(NC(=O)CCNC(=O)OC(C)(C)C)ccc3nc-2c(C)c(Cl)c1=O [b-ala-MCMP, methyl 7-N—(N′-t-butoxycarbonyl-β-alanyl)amino-1-methyl-2-chlorophenoxazin-3-one-4-carboxylate] |  |  |  |  |  |  |  |  |  |  |  |  |  |  |  |  |  |  | pink- | violet | coloration (Pseudomonas aeruginosa; strain ATCC 27853): violet; coloration (Pseudomonas aeruginosa; [11]): violet; coloration (Pseudomonas aeruginosa; [12]): colorless; coloration [9]: colorless; coloration (Pseudomonas putida): colorless; coloration (Pseudomonas fluorescens): colorless; coloration [10]: colorless; coloration (Escherichia coli): colorless
